The values below come from patent publication US20090068299A1.

The target of assay [1] is T1, ERβ (Homo sapiens, UniProt Q92731). The following applies: in the presence of ERβ.
Assay [2] deals with T1, ERβ. The experiment in a line: Repression of TNF-α activation of TNF-RE tkLuc in U2OS cells with ERβ. It counts as cell-based. Further details: expressed in transfected cells.
For a further assay, the system named is TNF-RE tkLuc. Briefly: Effect of antiestrogens on TNF-RE tkLuc. Type of assay: cell-based, human. The following applies: for effect on the repression induced by E2: TNF-RE tkLuc; for activation of TNF-RE tkLuc: antiestrogens, in contrast to E2.
Assay [3] deals with T1, ERβ. The experiment in a line: ERE-tk-Luc luciferase activation in U2OS cells with ERβ. It counts as cell-based. Set-up: expressed in transfected cells; host or cells: U2OS (human osteosarcoma). The following applies: competition.
The subject of assay [4] is primary invasive breast cancer. The following applies: women at high risk for breast cancer; cited from earlier work.
The subject of assay [5] is estrogen receptor-positive breast cancer. The following applies: five years of therapy; cited from earlier work.

T1 sequence (Q92731 whole entry): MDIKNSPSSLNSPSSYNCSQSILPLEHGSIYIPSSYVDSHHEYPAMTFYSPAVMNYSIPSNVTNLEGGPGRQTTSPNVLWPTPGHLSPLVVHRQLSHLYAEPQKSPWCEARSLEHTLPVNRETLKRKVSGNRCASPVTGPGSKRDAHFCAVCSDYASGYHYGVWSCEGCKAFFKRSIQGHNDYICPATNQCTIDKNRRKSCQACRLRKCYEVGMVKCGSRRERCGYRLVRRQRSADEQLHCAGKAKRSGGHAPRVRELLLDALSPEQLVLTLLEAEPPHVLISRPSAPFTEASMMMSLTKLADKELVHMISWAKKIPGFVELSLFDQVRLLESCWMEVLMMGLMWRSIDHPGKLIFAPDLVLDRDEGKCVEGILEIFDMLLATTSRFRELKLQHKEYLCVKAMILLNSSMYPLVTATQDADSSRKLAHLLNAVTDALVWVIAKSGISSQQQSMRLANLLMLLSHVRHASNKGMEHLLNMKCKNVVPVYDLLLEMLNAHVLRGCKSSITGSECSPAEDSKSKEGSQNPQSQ

On to `C[C@]12CC[C@@H]3c4ccc(O)cc4CC[C@H]3[C@@H]1CC[C@@H]2O` [E2, estradiol], for which the “repression of TNF-α activation of TNF-RE tkLuc” value at ERβ [1] was 60-80%. The “repression of TNF-α activation of TNF-RE” value at ERβ [2] is on record as 100%.
Regarding `C[C@]12CC[C@@H]3c4ccc(O)cc4C[C@@H](CCCCCCCCC[S+]([O-])CCCC(F)(F)C(F)(F)F)[C@H]3[C@@H]1CC[C@@H]2O` (stereo partly drawn) [ICI 182, 780], in the assay on TNF-RE tkLuc, the “effect on the repression induced by E2” value is “abolished the repression induced by E2” and the “activation of TNF-RE tkLuc” value is given as 2 fold.
Take `O=C(c1ccc(OCCN2CCCCC2)cc1)c1c(-c2ccc(O)cc2)sc2cc(O)ccc12` [raloxifene]: the “stimulatory effect of Pueraria lobata on the ERE with ERβ in the presence of the SERM antagonist (FIG. 6)” value on ERβ [3] is on record as “inhibited”. In the assay on TNF-RE tkLuc, the “effect on the repression induced by E2” value is listed as “abolished the repression induced by E2” and the “activation of TNF-RE tkLuc” value is 2 fold.
Regarding `CC/C(=C(\c1ccccc1)c1ccc(OCCN(C)C)cc1)c1ccccc1` [tamoxifen], the “reduction of the risk of primary invasive breast cancer” value in assay [4] is 49%. In addition, in assay [5], the “reduction of mortality from breast cancer” value is 22% and the “reduction of the risk of recurrences” value is 42%. In the assay on TNF-RE tkLuc, the “effect on the repression induced by E2” value is “abolished the repression induced by E2” and the “activation of TNF-RE tkLuc” value is listed as 2 fold.
